Laboratory results published in patent publication US9546172B2, “Pyrazolo[3,4-d]pyrimidine and pyrazolo[2,3-d]pyrimidine compounds as kinase inhibitors” (Pharmacyclics LLC, priority 2011, dated 2017).

Legend:
Assay type in all cases: biochemical
[1] = biological target: T1, Btk (Homo sapiens, UniProt Q06187); assay: Btk in vitro inhibitory activity (one of Methods A, B, C); settings: determined in one of three in vitro assays (Examples 125-127)
T1 construct: purified from insect cells as a full-length construct containing a N-terminal 6×-His tag; 6xHis (N); host or cells: insect cells (baculovirus Sf21 in Method B)
T1 sequence (Q06187 whole entry): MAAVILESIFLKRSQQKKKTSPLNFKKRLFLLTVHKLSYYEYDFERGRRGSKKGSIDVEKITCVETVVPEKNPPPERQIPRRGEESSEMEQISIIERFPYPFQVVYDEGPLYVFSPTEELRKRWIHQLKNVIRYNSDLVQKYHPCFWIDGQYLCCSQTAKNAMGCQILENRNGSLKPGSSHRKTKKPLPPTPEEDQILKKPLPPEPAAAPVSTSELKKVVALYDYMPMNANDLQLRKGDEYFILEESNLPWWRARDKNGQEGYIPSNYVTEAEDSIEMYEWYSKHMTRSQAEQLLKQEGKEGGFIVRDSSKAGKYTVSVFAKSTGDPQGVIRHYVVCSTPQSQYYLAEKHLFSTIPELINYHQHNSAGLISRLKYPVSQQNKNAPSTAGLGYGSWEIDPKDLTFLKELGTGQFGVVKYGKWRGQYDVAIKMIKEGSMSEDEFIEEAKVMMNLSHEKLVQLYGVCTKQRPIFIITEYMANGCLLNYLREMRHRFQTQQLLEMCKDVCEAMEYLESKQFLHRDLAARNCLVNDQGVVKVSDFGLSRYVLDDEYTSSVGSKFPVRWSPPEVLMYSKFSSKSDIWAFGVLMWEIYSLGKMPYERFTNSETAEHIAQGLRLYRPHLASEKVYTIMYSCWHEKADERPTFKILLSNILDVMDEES
Outline: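 Values come from one of three formats: TR-FRET (665/615 nm ratio; Ki(app) converted to IC50 with [ATP]=Km, 0.5 nM Btk), mobility-shift product/sum ratio over 12 concentrations with 4-parameter fit, or radiometric filter binding using His-tagged full-length human Btk (8 nM), 0.2 mg/mL poly-Glu-Tyr, 1 μM ATP, 120 min RT.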

[2] = biological target: T2, Tec (Homo sapiens, UniProt P42680); assay: Tec kinase inhibition
T2 sequence (P42680 1-631): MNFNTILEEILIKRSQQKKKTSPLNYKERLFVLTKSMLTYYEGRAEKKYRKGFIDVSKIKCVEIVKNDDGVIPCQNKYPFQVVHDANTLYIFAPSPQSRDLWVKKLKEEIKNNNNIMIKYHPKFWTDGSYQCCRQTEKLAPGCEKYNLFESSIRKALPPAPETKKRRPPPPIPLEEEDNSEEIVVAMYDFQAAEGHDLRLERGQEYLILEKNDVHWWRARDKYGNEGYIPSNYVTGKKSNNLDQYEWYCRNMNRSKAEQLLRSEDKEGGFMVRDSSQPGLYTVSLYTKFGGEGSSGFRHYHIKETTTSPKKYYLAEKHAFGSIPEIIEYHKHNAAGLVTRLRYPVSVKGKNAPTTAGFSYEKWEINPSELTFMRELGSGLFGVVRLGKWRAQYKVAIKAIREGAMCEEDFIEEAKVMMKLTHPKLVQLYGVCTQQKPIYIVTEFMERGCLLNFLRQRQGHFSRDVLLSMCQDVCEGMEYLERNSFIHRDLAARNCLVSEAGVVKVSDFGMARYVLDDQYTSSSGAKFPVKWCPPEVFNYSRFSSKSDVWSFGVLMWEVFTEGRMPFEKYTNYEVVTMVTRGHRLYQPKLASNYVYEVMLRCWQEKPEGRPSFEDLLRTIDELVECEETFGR
Method: (§1) Btk kinase activity was determined using a time-resolved fluorescence resonance energy transfer (TR-FRET) methodology. Measurements were performed in a reaction volume of 50 μL using 96-well assay plates. […] The reaction was quenched by the addition of 1.2 equivalents of EDTA (relative to divalent cation) in 25 μL of 1× Lance buffer (Perkin-Elmer). Streptavidin-APC (Perkin-Elmer) and Eu-labeled p-Tyr100 antibody (Perkin-Elmer) in 1× Lance buffer were added in a 25 μL volume to give final concentrations of 100 nM and 2.5 nM, respectively, and the mixture was allowed to incubate for one hour. The TR-FRET signal was measured on a multimode plate reader with an excitation wavelength (λEx) of 330 nm and detection wavelengths (λEm) of 615 and 665 nm. Activity was determined by the ratio of the fluorescence at 665 nm to that at 615 nm. For each compound, enzyme activity was measured at various concentrations of compound. Negative control reactions were performed in the absence of inhibitor in replicates of six, and two no-enzyme controls were used to determine baseline fluorescence levels Inhibition constants, Ki(app), were obtained using the program BatchKi (Kuzmic et al. (2000), Anal. Biochem. 286:45-50). IC50s were obtained according to the equation: IC50={Ki(app)/(1+[ATP]/Km^ATP)}+[E]total/2; For all kinases, [ATP]=Km^ATP, [Btk]total=0.5 nM and [Lck]total=6 nM.

[3] = biological target: EGFR (Homo sapiens, UniProt P00533); assay: EGFR kinase inhibition
[4] = biological target: Lck (Homo sapiens, UniProt P06239); assay: Lck kinase inhibition
Lck, sequence (P06239 whole entry): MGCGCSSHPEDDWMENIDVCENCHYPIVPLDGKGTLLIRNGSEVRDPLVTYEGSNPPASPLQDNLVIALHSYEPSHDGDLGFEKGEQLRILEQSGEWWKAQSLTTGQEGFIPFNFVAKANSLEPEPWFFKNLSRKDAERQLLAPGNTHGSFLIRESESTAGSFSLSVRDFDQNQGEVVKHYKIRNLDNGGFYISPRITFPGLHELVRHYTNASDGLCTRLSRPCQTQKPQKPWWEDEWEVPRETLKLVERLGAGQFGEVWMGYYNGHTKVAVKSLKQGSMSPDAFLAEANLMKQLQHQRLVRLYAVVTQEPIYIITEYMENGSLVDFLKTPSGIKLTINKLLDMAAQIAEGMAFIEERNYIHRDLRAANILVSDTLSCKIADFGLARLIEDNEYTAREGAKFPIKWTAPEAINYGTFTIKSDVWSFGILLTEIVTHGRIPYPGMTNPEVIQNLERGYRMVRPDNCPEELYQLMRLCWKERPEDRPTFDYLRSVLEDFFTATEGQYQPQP
Outline: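 Inhibitor dose–response measured by TR-FRET emission ratio. Apparent inhibition constants are fitted, then IC50 = Ki(app)/(1+[ATP]/Km) + [E]total/2, where ATP concentration equals Km for every kinase.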

[5] = biological target: C-src (Homo sapiens, UniProt P12931); assay: C-src kinase inhibition
C-src, sequence (P12931 whole entry): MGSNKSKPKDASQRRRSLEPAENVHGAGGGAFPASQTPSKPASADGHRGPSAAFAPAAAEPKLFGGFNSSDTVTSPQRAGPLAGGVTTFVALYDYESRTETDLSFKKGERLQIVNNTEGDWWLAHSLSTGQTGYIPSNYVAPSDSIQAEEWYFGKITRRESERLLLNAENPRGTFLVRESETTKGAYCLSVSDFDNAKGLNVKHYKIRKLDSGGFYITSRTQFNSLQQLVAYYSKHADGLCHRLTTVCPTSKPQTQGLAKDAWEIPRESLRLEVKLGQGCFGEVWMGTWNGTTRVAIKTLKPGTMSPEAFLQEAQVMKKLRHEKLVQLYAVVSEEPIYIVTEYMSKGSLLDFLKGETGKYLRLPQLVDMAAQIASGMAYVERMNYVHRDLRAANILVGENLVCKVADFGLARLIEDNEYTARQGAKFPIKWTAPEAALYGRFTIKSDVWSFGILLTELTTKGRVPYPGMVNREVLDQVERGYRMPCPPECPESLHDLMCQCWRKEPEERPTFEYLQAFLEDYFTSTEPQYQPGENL

[6] = biological target: Lyn (Homo sapiens, UniProt P07948); assay: Lyn kinase inhibition
Lyn, sequence (P07948 whole entry): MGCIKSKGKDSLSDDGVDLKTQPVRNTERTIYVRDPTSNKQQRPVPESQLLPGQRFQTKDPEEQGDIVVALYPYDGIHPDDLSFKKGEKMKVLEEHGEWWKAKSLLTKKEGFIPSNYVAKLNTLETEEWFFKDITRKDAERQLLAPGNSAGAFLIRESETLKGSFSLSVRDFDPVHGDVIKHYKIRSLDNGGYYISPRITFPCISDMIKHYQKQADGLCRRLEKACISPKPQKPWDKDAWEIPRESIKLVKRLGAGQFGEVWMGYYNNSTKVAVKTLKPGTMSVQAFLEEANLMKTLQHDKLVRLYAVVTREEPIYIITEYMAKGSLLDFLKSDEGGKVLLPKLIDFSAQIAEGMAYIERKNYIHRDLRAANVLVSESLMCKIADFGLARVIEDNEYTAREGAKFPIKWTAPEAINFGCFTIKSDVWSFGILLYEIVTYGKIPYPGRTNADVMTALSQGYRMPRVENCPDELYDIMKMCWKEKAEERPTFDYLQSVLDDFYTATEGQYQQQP

[7] = biological target: RET (Homo sapiens, UniProt P07949); assay: RET kinase inhibition
RET, sequence (P07949 29-1114): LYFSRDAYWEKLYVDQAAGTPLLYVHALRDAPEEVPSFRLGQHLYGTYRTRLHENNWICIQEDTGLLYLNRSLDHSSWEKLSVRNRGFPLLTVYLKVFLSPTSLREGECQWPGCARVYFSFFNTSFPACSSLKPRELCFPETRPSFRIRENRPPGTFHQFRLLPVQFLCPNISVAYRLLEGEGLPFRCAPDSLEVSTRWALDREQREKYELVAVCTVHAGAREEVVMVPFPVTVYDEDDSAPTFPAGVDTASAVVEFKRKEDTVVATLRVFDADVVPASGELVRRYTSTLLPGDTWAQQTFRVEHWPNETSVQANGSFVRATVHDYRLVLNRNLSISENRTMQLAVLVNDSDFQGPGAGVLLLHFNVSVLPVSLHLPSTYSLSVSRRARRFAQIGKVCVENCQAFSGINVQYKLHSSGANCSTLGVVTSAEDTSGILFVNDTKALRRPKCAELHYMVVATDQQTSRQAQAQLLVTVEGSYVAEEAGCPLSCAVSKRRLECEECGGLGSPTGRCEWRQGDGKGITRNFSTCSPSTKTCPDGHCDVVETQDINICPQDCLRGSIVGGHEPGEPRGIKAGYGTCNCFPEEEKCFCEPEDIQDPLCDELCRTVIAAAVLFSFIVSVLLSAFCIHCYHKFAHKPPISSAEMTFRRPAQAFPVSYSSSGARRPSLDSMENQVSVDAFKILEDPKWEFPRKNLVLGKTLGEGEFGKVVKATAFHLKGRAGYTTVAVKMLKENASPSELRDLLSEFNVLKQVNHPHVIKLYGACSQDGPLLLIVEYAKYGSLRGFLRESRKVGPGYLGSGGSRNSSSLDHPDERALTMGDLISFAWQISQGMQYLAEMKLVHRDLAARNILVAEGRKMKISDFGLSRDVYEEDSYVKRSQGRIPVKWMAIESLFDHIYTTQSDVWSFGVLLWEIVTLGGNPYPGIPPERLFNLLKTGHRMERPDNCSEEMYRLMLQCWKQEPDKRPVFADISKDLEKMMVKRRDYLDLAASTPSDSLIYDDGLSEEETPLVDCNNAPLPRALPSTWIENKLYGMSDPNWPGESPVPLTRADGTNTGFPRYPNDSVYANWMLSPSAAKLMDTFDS

[8] = biological target: BLK (Homo sapiens, UniProt P51451); assay: BLK kinase inhibition
BLK, sequence (P51451 whole entry): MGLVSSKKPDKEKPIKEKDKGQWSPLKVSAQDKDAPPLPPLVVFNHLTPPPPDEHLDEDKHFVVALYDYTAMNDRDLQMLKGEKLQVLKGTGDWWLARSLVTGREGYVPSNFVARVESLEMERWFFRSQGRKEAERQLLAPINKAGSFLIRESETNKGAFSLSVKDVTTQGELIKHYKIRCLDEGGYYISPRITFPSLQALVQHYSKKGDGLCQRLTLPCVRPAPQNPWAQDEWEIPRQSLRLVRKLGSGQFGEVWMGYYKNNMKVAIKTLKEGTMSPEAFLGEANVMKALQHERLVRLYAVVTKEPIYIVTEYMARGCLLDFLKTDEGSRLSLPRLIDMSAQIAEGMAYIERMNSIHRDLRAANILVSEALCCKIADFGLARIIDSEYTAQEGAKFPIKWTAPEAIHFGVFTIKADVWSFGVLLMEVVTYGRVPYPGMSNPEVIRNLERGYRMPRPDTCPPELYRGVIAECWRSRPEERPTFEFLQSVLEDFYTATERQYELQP
Method: as §1

[9] = biological target: T3, BMX (Homo sapiens, UniProt P51813); assay: BMX kinase inhibition
T3 sequence (P51813 1-675): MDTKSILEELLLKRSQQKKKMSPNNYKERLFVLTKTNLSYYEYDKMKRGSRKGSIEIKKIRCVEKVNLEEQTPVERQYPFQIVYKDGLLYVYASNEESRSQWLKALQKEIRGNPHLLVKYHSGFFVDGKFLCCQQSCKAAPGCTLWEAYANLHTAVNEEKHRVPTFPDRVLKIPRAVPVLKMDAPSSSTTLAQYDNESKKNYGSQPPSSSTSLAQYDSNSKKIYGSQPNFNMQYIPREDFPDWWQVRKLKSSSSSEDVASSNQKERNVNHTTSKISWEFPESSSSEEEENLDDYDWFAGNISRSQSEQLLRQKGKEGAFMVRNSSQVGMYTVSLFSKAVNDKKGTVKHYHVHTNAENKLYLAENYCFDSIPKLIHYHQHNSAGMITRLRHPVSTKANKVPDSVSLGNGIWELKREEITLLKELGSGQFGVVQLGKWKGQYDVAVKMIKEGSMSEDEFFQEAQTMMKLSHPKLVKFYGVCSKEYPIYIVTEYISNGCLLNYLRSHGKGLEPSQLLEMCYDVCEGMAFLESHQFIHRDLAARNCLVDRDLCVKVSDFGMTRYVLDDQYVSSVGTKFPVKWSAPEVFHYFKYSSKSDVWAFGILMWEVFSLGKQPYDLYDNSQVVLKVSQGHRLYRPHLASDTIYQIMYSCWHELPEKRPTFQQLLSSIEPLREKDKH

[10] = biological target: CSK (Homo sapiens, UniProt P41240); assay: CSK kinase inhibition
CSK, sequence (P41240 whole entry): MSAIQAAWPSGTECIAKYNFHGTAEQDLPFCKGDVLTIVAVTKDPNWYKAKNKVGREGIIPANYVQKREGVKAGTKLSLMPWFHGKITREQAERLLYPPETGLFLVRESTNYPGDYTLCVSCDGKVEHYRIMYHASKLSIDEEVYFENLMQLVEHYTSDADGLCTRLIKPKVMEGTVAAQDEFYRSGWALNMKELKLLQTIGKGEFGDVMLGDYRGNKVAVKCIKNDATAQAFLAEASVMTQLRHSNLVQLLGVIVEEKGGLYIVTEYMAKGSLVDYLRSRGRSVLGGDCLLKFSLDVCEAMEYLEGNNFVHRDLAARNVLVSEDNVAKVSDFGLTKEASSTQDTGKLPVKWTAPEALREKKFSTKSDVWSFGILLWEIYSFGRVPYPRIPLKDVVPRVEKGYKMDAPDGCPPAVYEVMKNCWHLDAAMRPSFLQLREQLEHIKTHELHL

CN(C)C/C=C/C(=O)Nc1cccc(-n2nc(-c3ccc(Cl)cc3)c3c(N)ncnc32)c1 [Example 27, (E)-N-(3-(4-amino-3-(4-chlorophenyl)-1H-pyrazolo[3,4-d]pyrimidin-1-yl)phenyl)-4-(dimethylamino)but-2-enamide]
IC50 [1]: < 0.1 µM
IC50 [2]: < 0.1 µM
IC50 [3]: < 0.1 µM
IC50 [4]: < 0.1 µM
IC50 [5]: < 0.1 µM
IC50 [6]: 0.1 to 1 µM
IC50 [7]: 0.1 to 1 µM
IC50 [8]: < 0.1 µM
IC50 [9]: < 0.1 µM
IC50 [10]: 0.1 to 1 µM
